Laboratory results published in patent publication EP0407583A1, “DERIVATIVES OF DICHLOR[…] ACYLAMIDO[…] AND INSECTICIDAL, FU[…] HEMATOCIDAL PREPARATIONS BASED ON THEM” (priority 1989, dated 1990).

Key:
Candida tropicalis [1] = experiment: Fungicidal activity, laboratory test on Sabouraud medium; assay type: cell-based; conditions: composition 0.01 % by mass in distilled water
Protocol: A fungicidal composition based on this compound was prepared which was a solution of it in distilled water at the concentration pf 0.01 % by mass. A fungicidal activity of the composition, according to the invention, was tested in laboratory conditions for inhibiting the growth of fungi such as Candida tropicalis affecting the macosal and skin coats, and internals.
To this, the Petri dishes containing the Sabouraud growth medium were inoculated with a suspension of microorganisms at the concentration of 5x10^7 cells of fungi in 1 ml.
The restricted surface areas (7 mm in diameter) were coated with the composition by means of a small metal spatula 4x4 mm in size. In a day of incubating at 37 °C in a thermostat, the composition inhibited the growth of yeast--like fungi. An antifungal activity of the composition was specified by a method of 10-fold serial dilution using Sabouraud's liquid medium in 2 ml of which 2x10^5 cells were introduced. After two days of incubation in the thermostat at 34 °C, a minimum dilution of the substance exerting a fungicidal effect was determined.

Solubility (qualitative) = conditions: water, alcohols, acetone
Candida tropicalis [2] = experiment: Fungicidal activity, large-scale test on contaminated surfaces and fabrics; assay type: cell-based; conditions: composition 0.01 % by mass; surfaces of ceramics, metal, wood, rubber, fabrics
Protocol: (§1) The large-scale tests were carried out by using Candida albicans and Candida tropicalis strains 2-day culture of which was diluted with an isotonic solution of sodium chloride to the concentration of 5x10^7 cells in 1 ml.
(§2) The suspended cell culture was applied onto the surface (7 mm in diameter) of articles made of ceramics, metal, wood and rubber as well as cotton, flannel woollen fabrics which were presterillized.
(§3) In a day after incubating from the treated surfaces, the washings were taken with a cotton-gauze tampon wetted with Sabouraud^ts liquid medium, immersed into the tubes with a similar medium and placed into a thermostat at 37 °C for two days. Thereafter, the inoculum was introduced in Sabouraud's stiff agar, and the growth records were made by a conventional procedure.

Candida albicans [3] = experiment: as above; assay type: cell-based; conditions: composition 0.01 % by mass; surfaces of ceramics, metal, wood, rubber, fabrics
Protocol: as §1, §2, §3

Candida albicans [4] = experiment: Fungicidal activity, laboratory test on Sabouraud medium; assay type: cell-based; conditions: composition 0.01 % by mass in distilled water
Diplodia zeae [5] = experiment: Inhibition of phytopathogenic fungi growth, laboratory test on potato-dextrose agar; assay type: cell-based; conditions: active principle 0.01 % by mass in potato-dextrose agar
Protocol: (§4) A fungicidal composition based on this compound was prepared in the form of a 0.01% solution thereof in distilled water. A fungicidal action of the composition, according to the invention, was tested for inhibition of vegetative fungi growth such as Fusarium moniliforme, Ventura inaequalis, Rhyzoctonia ciolaceae, Botrytis cinereae, Verticillium albo-atrum, Diplodia zeae, Fusarium oxysporum, Rhoma betae, Rhyzoctonia aderholdii, Aspergillus niger, Alternaria sobani, Botrytis allii, Aspergillus fumigatis, Fusarium culmorum, Penicillium cyclopium affecting potato, sugar beet, cotton seeds either in laboratory or field conditions. For testing it to the Petri dishes containing potato-dextrose agar the composition of the invention was.added at the concentration of an active principle of 0.01 % by mass. The Petri dishes containing the same agar culture were inoculated with a mycelium of phytopathogenic fungi. For control dishes the phytopathogenic fungi were inoculated on agar without using the composition of the invention. A fungicidal effect of the composition, according to the invention was tested in comparison with the known fungicidal compositions based on 2,3-dichloro-1,4-naphthoquinone, zinc N,N'-ethylene-bis-dithiocarbamate and tetramethylthiuram disulphide.

Rhoma betae [6] = experiment: as above; assay type: cell-based; conditions: active principle 0.01 % by mass in potato-dextrose agar
Protocol: as §4

Botrytis allii [7] = experiment: as above; assay type: cell-based; conditions: active principle 0.01 % by mass in potato-dextrose agar
Protocol: as §4

Fusarium culmorum [8] = experiment: as above; assay type: cell-based; conditions: active principle 0.01 % by mass in potato-dextrose agar
Protocol: as §4

Fusarium moniliforme [9] = experiment: as above; assay type: cell-based; conditions: active principle 0.01 % by mass in potato-dextrose agar
Protocol: as §4

Penicillium cyclopium [10] = experiment: as above; assay type: cell-based; conditions: active principle 0.01 % by mass in potato-dextrose agar
Protocol: as §4

Verticillium albo-atrum [11] = experiment: as above; assay type: cell-based; conditions: active principle 0.01 % by mass in potato-dextrose agar
Protocol: as §4

Botrytis cinereae [12] = experiment: as above; assay type: cell-based; conditions: active principle 0.01 % by mass in potato-dextrose agar
Protocol: as §4

Rhyzoctonia violaceae [13] = experiment: as above; assay type: cell-based; conditions: active principle 0.01 % by mass in potato-dextrose agar
Protocol: as §4

Rhyzoctonia aderholdii [14] = experiment: as above; assay type: cell-based; conditions: active principle 0.01 % by mass in potato-dextrose agar
Protocol: as §4

Venturia inaequalis [15] = experiment: as above; assay type: cell-based; conditions: active principle 0.01 % by mass in potato-dextrose agar
Protocol: as §4

Fusarium oxysporum [16] = experiment: as above; assay type: cell-based; conditions: active principle 0.01 % by mass in potato-dextrose agar
Protocol: as §4

Alternaria sobani [17] = experiment: as above; assay type: cell-based; conditions: active principle 0.01 % by mass in potato-dextrose agar
Protocol: as §4

Aspergillus niger [18] = experiment: as above; assay type: cell-based; conditions: active principle 0.01 % by mass in potato-dextrose agar
Protocol: as §4

Aspergillus fumigatis [19] = experiment: as above; assay type: cell-based; conditions: active principle 0.01 % by mass in potato-dextrose agar
Protocol: as §4

Diplodia zeae [20] = experiment: Inhibition of phytopathogenic fungi, field test on affected potato plants; assay type: in vivo; conditions: 5 m^2 plots of affected potato plants sprayed
Excerpt: (§5) For field tests the plots of 5 m^2 in size with potato plants affected by Fusarium moniliforme, Venturia inaequalis, Rhyzoctonia violaceae, Botrytis cinereae, Verticillium albo-atrum, Diplodia zeae, Fusarium oxysporum, Rhoma betae, Rhyzoctonia aderholdii, Aspergillus niger, Alternaria sobani, Botrytis allii, Aspergillus fumigatis, Fusarium culmorum, Penicillium cyclopium were sprayed with the fungicide of the invention. To compare, the similar plots of the affected potato plants were aprayed with the known compositions indicated above.

Rhoma betae [21] = experiment: as above; assay type: in vivo; conditions: 5 m^2 plots of affected potato plants sprayed
Excerpt: as §5

Botrytis allii [22] = experiment: as above; assay type: in vivo; conditions: 5 m^2 plots of affected potato plants sprayed
Excerpt: as §5

Fusarium culmorum [23] = experiment: as above; assay type: in vivo; conditions: 5 m^2 plots of affected potato plants sprayed
Excerpt: as §5

Fusarium moniliforme [24] = experiment: as above; assay type: in vivo; conditions: 5 m^2 plots of affected potato plants sprayed
Excerpt: as §5

Penicillium cyclopium [25] = experiment: as above; assay type: in vivo; conditions: 5 m^2 plots of affected potato plants sprayed
Excerpt: as §5

Verticillium albo-atrum [26] = experiment: as above; assay type: in vivo; conditions: 5 m^2 plots of affected potato plants sprayed
Excerpt: as §5

Botrytis cinereae [27] = experiment: as above; assay type: in vivo; conditions: 5 m^2 plots of affected potato plants sprayed
Excerpt: as §5

Rhyzoctonia violaceae [28] = experiment: as above; assay type: in vivo; conditions: 5 m^2 plots of affected potato plants sprayed
Excerpt: as §5

Rhyzoctonia aderholdii [29] = experiment: as above; assay type: in vivo; conditions: 5 m^2 plots of affected potato plants sprayed
Excerpt: as §5

Venturia inaequalis [30] = experiment: as above; assay type: in vivo; conditions: 5 m^2 plots of affected potato plants sprayed
Excerpt: as §5

Fusarium oxysporum [31] = experiment: as above; assay type: in vivo; conditions: 5 m^2 plots of affected potato plants sprayed
Excerpt: as §5

Alternaria sobani [32] = experiment: as above; assay type: in vivo; conditions: 5 m^2 plots of affected potato plants sprayed
Excerpt: as §5

Aspergillus niger [33] = experiment: as above; assay type: in vivo; conditions: 5 m^2 plots of affected potato plants sprayed
Excerpt: as §5

Aspergillus fumigatis [34] = experiment: as above; assay type: in vivo; conditions: 5 m^2 plots of affected potato plants sprayed
Excerpt: as §5

O=C(NP(=O)(NNc1ccccc1)NNc1ccccc1)c1ccc(Cl)cc1 [Example 10, para--chlorobenzoylamidophosphoric acid diphenyl hydrazide]
Inhibition of growth of fungal colonies, % Candida tropicalis tests laboratory (Candida tropicalis [1]): 0% | solubility (Solubility (qualitative)): soluble in water, alcohols, acetone | Inhibition of growth of fungal colonies, % Candida tropicalis tests large-scale (Candida tropicalis [2]): 100% | Inhibition of growth of fungal colonies, % Candida albicans tests large-scale (Candida albicans [3]): 100% | Inhibition of growth of fungal colonies, % Candida albicans tests laboratory (Candida albicans [4]): 100%

O=C(NP(=O)(Nc1ccc(Cl)cc1[N+](=O)[O-])Nc1ccc(Cl)cc1[N+](=O)[O-])c1ccc(Cl)cc1 [Example 14, para-chlorobenzoylamidophosphoric acid di-para-chloro--ortho-nitroanilide]
Inhibition of growth of phytopathogenic fungi colonies, % Diplodia zeae test laboratory (Diplodia zeae [5]): 100% | Inhibition of growth of phytopathogenic fungi colonies, % Rhoma betae test laboratory (Rhoma betae [6]): 68% | Inhibition of growth of phytopathogenic fungi colonies, % Botrytis allii test laboratory (Botrytis allii [7]): 100% | Inhibition of growth of phytopathogenic fungi colonies, % Fusarium culmorum Tests laboratory (Fusarium culmorum [8]): 100% | Inhibition of growth of phytopathogenic fungi colonies, % Fusatium monili-forme test laboratory (Fusarium moniliforme [9]): 56% | Inhibition of growth of phytopathogenic fungi colonies, % Penicillium cyclopium Tests laboratory (Penicillium cyclopium [10]): 79% | Inhibition of growth of phytopathogenic fungi colonies, % Verticillium albo--atrum test laboratory (Verticillium albo-atrum [11]): 40% | Inhibition of growth of phytopathogenic fungi colonies, % Botrytis cinereae test laboratory (Botrytis cinereae [12]): 0% | Inhibition of growth of phytopathogenic fungi colonies, % Rhyzoctonia violaceae test laboratory (Rhyzoctonia violaceae [13]): 35% | Inhibition of growth of phytopathogenic fungi colonies, % Rhyzoctonia aderholdii test laboratory (Rhyzoctonia aderholdii [14]): 100% | Inhibition of growth of phytopathogenic fungi colonies, % Venturia inaequalis test laboratory (Venturia inaequalis [15]): 50% | Inhibition of growth of phytopathogenic fungi colonies, % Fusarium oxysporum test laboratory (Fusarium oxysporum [16]): 50% | Inhibition of growth of phytopathogenic fungi colonies, % Alternaria sobani test laboratory (Alternaria sobani [17]): 100% | Inhibition of growth of phytopathogenic fungi colonies, % Aspergillus niger test laboratory (Aspergillus niger [18]): 6% | Inhibition of growth of phytopathogenic fungi colonies, % Aspergillus fumigatis Tests laboratory (Aspergillus fumigatis [19]): 100% | solubility (Solubility (qualitative)): soluble in water, alcohols, acetone | Inhibition of growth of phytopathogenic fungi colonies, % Diplodia zeae test field (Diplodia zeae [20]): 100% | Inhibition of growth of phytopathogenic fungi colonies, % Rhoma betae test field (Rhoma betae [21]): 67% | Inhibition of growth of phytopathogenic fungi colonies, % Botrytis allii test field (Botrytis allii [22]): 98% | Inhibition of growth of phytopathogenic fungi colonies, % Fusarium culmorum Tests field (Fusarium culmorum [23]): 100% | Inhibition of growth of phytopathogenic fungi colonies, % Fusatium monili-forme test field (Fusarium moniliforme [24]): 55% | Inhibition of growth of phytopathogenic fungi colonies, % Penicillium cyclopium Tests field (Penicillium cyclopium [25]): 71% | Inhibition of growth of phytopathogenic fungi colonies, % Verticillium albo--atrum test field (Verticillium albo-atrum [26]): 39% | Inhibition of growth of phytopathogenic fungi colonies, % Botrytis cinereae test field (Botrytis cinereae [27]): 0% | Inhibition of growth of phytopathogenic fungi colonies, % Rhyzoctonia violaceae test field (Rhyzoctonia violaceae [28]): 34% | Inhibition of growth of phytopathogenic fungi colonies, % Rhyzoctonia aderholdii test field (Rhyzoctonia aderholdii [29]): 100% | Inhibition of growth of phytopathogenic fungi colonies, % Venturia inaequalis test field (Venturia inaequalis [30]): 49% | Inhibition of growth of phytopathogenic fungi colonies, % Fusarium oxysporum test field (Fusarium oxysporum [31]): 48% | Inhibition of growth of phytopathogenic fungi colonies, % Alternaria sobani test field (Alternaria sobani [32]): 93% | Inhibition of growth of phytopathogenic fungi colonies, % Aspergillus niger test field (Aspergillus niger [33]): 5% | Inhibition of growth of phytopathogenic fungi colonies, % Aspergillus fumigatis Tests field (Aspergillus fumigatis [34]): 93%
